Data reported in US8088887B2, “Peptide-conjugates that bind to VEGF-stimulated or tumor vasculature and methods of treatment” (Academia Sinica, priority 2007, dated 2012).
“Also recorded” adds a separate entry of the source.

Experiments:
oral cancer xenografts = test: Peptide competitive inhibition of IVO-2 phage homing, oral cancer xenografts; format: in vivo, SCID mice
[1] = tested on: NSCLC tumor mass (CL1-5-derived tumors); test: Peptide competitive inhibition of PC5-52 phage homing, lung cancer xenografts; format: in vivo, SCID mice
Description: To investigate the targeting ability of PC5-52, phages were injected into the tail vein of SCID mice bearing human lung cancer cell-derived tumors and recovered after perfusion. We determined the titers of the phages in tumor mass and other normal organs. The phage clones, or control helper phage (insertless phage), were injected into the tail vein (i.v.) of SCID mice bearing human lung cancer tumor xenografts for 8 min or 24 h. After perfusion, xenograft tumors and organs were removed and the recovered phage titered. In peptide competitive inhibition experiments, described below, phage clones were co-injected with 100 μg synthetic peptide. After injection of candidate or control phage clones, the organs and tumors were removed and divided into two parts. One part was titered by ER2738, and another part was embedded in Optimal Cutting Temperature (OCT, Tissue-Tek, NL, USA). The OCT-embedded frozen tissues were sectioned at 5 microns and transferred to cold PBS buffer. Then, the sections were fixed with acetone-methanol (1:1), washed with PBS and immersed in blocking buffer (1% BSA in PBS) for 1 h. The blocked samples were then incubated with rat anti-mouse CD31 (BD Pharmingen, Mass., USA.), rabbit anti-rat Ab (Stressgen, Canada) and immersed in Rhodamine labeled goat anti-rabbit antibody (Jackson ImmunoResearch, Pa., USA.). […]

Row | Sequence | inhibition of IVO-2 homing to tumor tissue (oral cancer xenografts; co-injected peptide, FIG. 2D) | inhibition of IVO-2 homing to oral cancer xenografts (oral cancer xenografts; coinjection of 100 μg peptide) [%] | inhibition of PC5-52 homing to NSCLC tumor mass ([1]; 100 μg peptide co-injected with phage) [%] | inhibition of tumor homing ability of PC5-52 ([1]; co-injected peptide, CL1-5-derived tumors, FIG. 2B/4B)
1 | RLLDTNRPLLPY [Control peptide, synthetic control peptide, reference compound] | could not inhibit | – | – | –
2 | SVSVGMKPSPRP [SP5-52] | – | 95.9 | 97 | inhibited markedly; also recorded: markedly inhibited
